Reference: patent US20150289512A1, “METHOD FOR PROMOTING PLANT GROWTH” (SUMITOMO CHEMICAL COMPANY, LIMITED, priority 2012, published 2015)

Key:
Format in all cases: in vivo
[1] = system: Corn seeds (variety: Pioneer 120 31P41); experiment: Test Example 14: growth promotion under low-temperature stress by soil drench treatment of corn; conditions: soil drench 20 ml, low-temperature stress 5 days at 2.5° C., health score 0-5, average of 4 individuals
Method: Test for Evaluating Growth Promotion Under Low-Temperature Stress by Soil Drench Treatment of Corn
Corn seeds (variety: Pioneer 120 31P41) were seeded in a culture soil (Aisai) in a plastic pot (φ55 mm×height of 58 mm), and cultivated for 7 days at 20-25° C., an illuminance of about 5,000 lux, and a day length of 16 hours.
A DMSO solution, which contained one of the compounds 1 to 9, 16, 17, 20, 23, 24, 28 to 32, 34, 45, 48, 50, 82 and 85 of the present invention at a concentration of 1,000-fold concentration of each test concentration, was prepared, and then diluted with distilled water to obtain each test solution. After that, 20 ml of the obtained test solution was used to perform soil drench treatment on the foot of the test plants. The test plants were cultivated for 2 days under the conditions of a temperature of 27° C., a humidity of 40-80%, an illuminance of about 5,000 lux, and a day length of 16 hours. This was used as a test plot treated with the compound. A plot having undergone the soil drench treatment with 20 ml of a 0.1% DMSO aqueous solution instead of the above DMSO solution containing the compound was used as an untreated control plot.
The plants having undergone the soil drench treatment were cultivated for 5 days under the conditions of a temperature of 2.5° C., a humidity of 40-80%, an illuminance of about 5,000 lux, and a day length of 16 hours, thereby exposing to low-temperature stress. After the exposure to the low-temperature stress, the plants were cultivated for 4 days under the conditions of a temperature of 27° C., a humidity of 40-80%, an illuminance of about 5,000 lux, and a day length of 16 hours.
After the cultivation, the health of each plant was scored according to the following evaluation index.
5: 4 or more leaves in which ⅔ or more of the area was healthy
4: 3 leaves in which ⅔ or more of the area was healthy
3: 2 leaves in which ⅔ or more of the area was healthy
2: 1 leaf in which ⅔ or more of the area was healthy
1: No leaf in which ⅔ or more of the area was healthy
An average of the scores of the health of 4 individuals was determined.

[2] = system: Rice (variety: Nipponbare); experiment: Test Example 1: promotion of root growth by hydroponics of rice, 10 ppm; conditions: hydroponic solution containing the test compound at 10 ppm, average of 4 or 5 individuals
Outline: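 Surface-sterilised seeds germinated 3 days in the dark at 28° C in hydroponic solution with compound at 10 ppm, then grown 3 days hydroponically with compound at 10 ppm (26° C, 4,000 lux, 16 h day, 50% humidity). Seminal root length measured by image analysis, averaged over 4 or 5 plants per plot.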

Nicotiana benthamiana [3] = experiment: Test Example 6: growth promotion under low-temperature stress by hydroponics of Nicotiana benthamiana, 0.1 ppm; conditions: 0.1 ppm in medium, low-temperature stress 7 days at 1.5±1.0° C., green leaf area 3 days later, equation (1)
Method: (§1) Test for Evaluating Growth Promotion Under Low-Temperature Stress by Hydroponics of Nicotiana benthamiana
A DMSO solution, which contained one of the compounds 3, 7, 14, 16, 36, 39, 43, 45, 50, 52, 53, 54, 56, 57, 62, 63, 64, 65, 68, 69, 70, 71, 73, 74, 76, 77, 79, 80, 81, 84, 85, 86 and 87 of the present invention at a concentration of 100 ppm, was prepared. The DMSO solution of the compound of the present invention was added at a volume ratio of 1/1,000 to the Murashige•Scoog medium of a ½-fold concentration for the Murashige•Scoog medium (a medium containing 2.3 g of mixed salts (manufactured by Wako Pure Chemical Industries, Ltd.), 200 mg of Myo-inositol (manufactured by Sigma-Aldrich Co. LLC.), 2 mg of nicotinic acid (manufactured by Wako Pure Chemical Industries, Ltd.), 2 mg of pyridoxine hydrochloride (manufactured by Wako Pure Chemical Industries, Ltd.), 20 mg of thiamine hydrochloride (manufactured by Wako Pure Chemical Industries, Ltd.), 20 g of sucrose (manufactured by Wako Pure Chemical Industries, Ltd.), and 1 g of MES (manufactured by DOJINDO LABORATORIES) per 1 L of water and having pH adjusted to 5.8), thereby preparing a medium containing the compound of the present invention at a concentration of 0.1 ppm.
(§2) Seeds of Nicotiana benthamiana were seeded in the 5 μL of the medium and cultured overnight at 22° C. Thereafter, 45 μL of the medium containing the compound of the present invention at a concentration of 0.1 ppm was added thereto, and the seeds are cultivated for 7 days at 22° C., an illuminance of 4,000 lux, and a day length of 16 hours, and the nursery plants raised from the Nicotiana benthamiana were treated with the compound. Moreover, instead of the above medium a test plot, which was obtained by performing the same treatment by using a medium prepared by adding DMSO to the Murashige•Scoog medium of ½-fold concentration at a volume ratio of 1/1,000, was used as a control plot not treated with the compound.
(§3) The nursery plants of the Nicotiana benthamiana treated with the compound were subjected to low-temperature treatment by being cultivated for 7 days at 1.5±1.0° C., an illuminance of 2,000 lux, and a day length of 16 hours.
The nursery plants of the Nicotiana benthamiana having undergone the low-temperature stress treatment were cultivated for 3 days at 22° C., an illuminance of 4,000 lux, and a day length of 16 hours. Thereafter, the area of green leaf was quantified by Scanalyzer HTS (manufactured by LemnaTec GmbH). Moreover, the value of the control plot not treated with the compound that had not yet been subjected to the low-temperature stress treatment was measured in the same manner. A value of a relative leaf area was calculated based on the following equation (1), and if the value of a relative leaf area was 5 or greater, the compound was evaluated to have a mitigating effect. As a result of the evaluation, it was confirmed that when the plant was treated with one of the compounds 3, 7, 14, 16, 36, 39, 43, 45, 50, 52, 53, 54, 56, 57, 62, 63, 64, 65, 68, 69, 70, 71, 73, 74, 76, 77, 79, 80, 81, 84, 85, 86 and 87 of the present invention at 0.1 ppm, the value of a relative leaf area was 5 or greater, compared to the area of green leaf of the control plot not treated with compound. Accordingly, it was confirmed that the treatment using the compound of the present invention brings about a growth promotion effect.
(§4) Relative leaf area=100*(a green area of a plot treated with the compound of the present invention−a green area of a control plot not treated with the compound of the present invention)/(a green area of a control plot not treated with the compound of the present invention that has not yet been subjected to low-temperature stress treatment−green area of a control plot not treated with the compound of the present invention) Equation (1): […]

Nicotiana benthamiana [4] = experiment: Test Example 5: growth promotion under low-temperature stress by hydroponics of Nicotiana benthamiana, 1 ppm; conditions: 1 ppm in medium, low-temperature stress 7 days at 1.5±1.0° C., green leaf area 3 days later, equation (1)
Method: as §1
A DMSO solution, which contained one of the compounds 2, 4, 5, 6, 11, 12, 17, 20, 21, 28, 30, 34, 36, 37, 51, 52, 53, 55, 56, 58, 59, 60, 64, 65, 66, 68, 69, 70, 74, 77, 82, 83, 84, 86 and 87 of the present invention at a concentration of 1,000 ppm, was prepared. The DMSO solution of the compound of the present invention was added at a volume ratio of 1/1,000 to the Murashige•Scoog medium of a ½-fold concentration (a medium containing 2.3 g of mixed salts for the Murashige•Scoog medium (manufactured by Wako Pure Chemical Industries, Ltd.), 200 mg of Myo-inositol (manufactured by Sigma-Aldrich Co. LLC.), 2 mg of nicotinic acid (manufactured by Wako Pure Chemical Industries, Ltd.), 2 mg of pyridoxine hydrochloride (manufactured by Wako Pure Chemical Industries, Ltd.), 20 mg of thiamine hydrochloride (manufactured by Wako Pure Chemical Industries, Ltd.), 20 g of sucrose (manufactured by Wako Pure Chemical Industries, Ltd.), and 1 g of MES (manufactured by DOJINDO LABORATORIES) per 1 L of water and having pH adjusted to 5.8), thereby preparing a medium containing the compound of the present invention at a concentration of 1 ppm.
as §2, with “of 1” for “of 0.1”, “are cultured” for “are cultivated”, “above medium,” for “above medium”
as §3
The nursery plants of the Nicotiana benthamiana having undergone the low-temperature stress treatment were cultured for 3 days at 22° C., an illuminance of 4,000 lux, and a day length of 16 hours. Thereafter, the area of green leaf was quantified by Scanalyzer HTS (manufactured by LemnaTec GmbH). Moreover, the value of the control plot not treated with the compound that had not yet been subjected to the low-temperature stress treatment was measured in the same manner. A value of a relative leaf area was calculated based on the following equation (1), and if the value of a relative leaf area was 5 or greater, the compound was evaluated to have a mitigating effect. As a result of the evaluation, it was confirmed that when the plant was treated with one of the compounds 2, 4, 5, 6, 11, 12, 17, 20, 21, 28, 30, 34, 36, 37, 51, 52, 53, 55, 56, 58, 59, 60, 64, 65, 66, 68, 69, 70, 74, 77, 82, 83, 84, 86 and 87 of the present invention at 1 ppm, the value of a relative leaf area was 5 or greater, compared to the area of green leaf of the control plot not treated with compound. Accordingly, it was confirmed that the treatment using the compound of the present invention brings about a growth promotion effect.
as §4, with “treatment−a green” for “treatment−green”

SMILES: CCOC(=O)c1nc2ccccc2s1 [Compound 31]
- Relative value of score (%- untreated control plot) ([1]; concentration tested 0.3 ppm): >5%

SMILES: CCOC(=O)c1cc2cc(C(F)(F)F)ccc2[nH]1 [Compound 9]
- Relative value of score (%- untreated control plot) ([1]; concentration tested 3 ppm): >5%
- Relative value of length of seminal root (%-untreated control plot) [2]: >5%

SMILES: COC(=O)c1nc2c(F)cc(F)cc2s1 [Compound 87]
- relative leaf area (% of untreated control) at 0.1 ppm (Nicotiana benthamiana [3]): ≥ 5%
- relative leaf area (% of untreated control) at 1 ppm (Nicotiana benthamiana [4]): ≥ 5%

SMILES: O=C(O)c1nc2ccccc2s1 [Compound 32]
- Relative value of score (%- untreated control plot) ([1]; concentration tested 0.3 ppm): >5%
- Relative value of length of seminal root (%-untreated control plot) [2]: >5%

SMILES: CCOC(=O)c1oc2ccccc2c1C(F)(F)F [Compound 84]
- relative leaf area (% of untreated control) at 0.1 ppm (Nicotiana benthamiana [3]): ≥ 5%
- change in vivo at 10 ppm ([2]; Oryza sativa, read-out: Relative value of length of seminal root (%-untreated control plot)): > 5%
- relative leaf area (% of untreated control) at 1 ppm (Nicotiana benthamiana [4]): ≥ 5%

SMILES: COC(=O)c1nc2cc(C(F)(F)F)ccc2n1C [Compound 24, methyl 1-methyl-5-trifluoromethylbenzimidazole-2-carboxylate]
- change in vivo at 10 ppm ([1]; Zea mays, 120 h, concentration tested 10 ppm, read-out: Relative value of score (%- untreated control plot)): > 5%

SMILES: COC(=O)c1nc2ccccc2n1C [Compound 23]
- Relative value of score (%- untreated control plot) ([1]; concentration tested 10 ppm): >5%
- Relative value of length of seminal root (%-untreated control plot) [2]: >5%
